IC50 data for 22 compounds are collected here from patent publication US8426588B2, “Phenylalanine derivatives” (Ajinomoto Co, Inc., priority 2000, dated 2013).

In one assay the target is T1, integrin α4β1 (Homo sapiens, UniProt P05556+P13612).
T1 construct: cell strain Jurkat (ATCC TIB-152) of human T cells, known to express integrin α4β1; endogenous in cells; host or cells: Jurkat (ATCC TIB-152)
As to the kind of experiment: VCAM antagonist activity (VCAM-1/α4β1 binding assay), Jurkat cells binding to VCAM-1. Format: cell-based. As to conditions: Jurkat human T cells binding to recombinant human VCAM-1; read-out: VCAM antagonistic activity (IC50) α4β1. Here is the method: VCAM Antagonist Activity (VCAM-1/α4β1 Binding Assay)
The capacity of a test substance antagonistic to the binding of cell strain Jurkat (ATCC TIB-152) of human T cells, known to express integrin α4β1, to VCAM-1 was determined.
(§1) 100 μl/well of a solution (500 ng/ml) of recombinant human VCAM-1 (R & D systems) solution diluted with buffer A (0.1 M NaHCO3, pH 9.6) was added to a micro titer plate having 96 wells (Nunc Maxisorp). After the incubation at 4° C. overnight, unbound VCAM-1 was removed by washing once with PBS. After completion of the washing, a buffer (buffer B) obtained by diluting Block Ace (Dainippon Pharmaceutical Co., Ltd.) with PBS to ¼ concentration was added in an amount of 150 μl/well. After the incubation at room temperature for 1 hour, buffer B was removed and the plate was washed with PBS once.
Jurkat cells were washed with Dulbecco modified Eagle medium (SIGMA, hereinafter referred to as “DMEM”) twice and then incubated in DMEM containing 10 μg/ml of Calcein-AM (Wako Pure Chemical Industries, Ltd.) at 37° C. in dark place for 30 minutes to label with fluorescence. The cells were again suspended in a binding buffer (20 mM HEPES, DMEM containing 0.1% BSA).
(§2) 50 μl of a test substance of various concentrations obtained by the dilution with the binding buffer was added to the plate. Immediately thereafter, 50 μl (final volume: 100 μl/well) of the fluorescent Jurkat cells (4×10^6 cells/ml) were added thereto, and they were incubated in dark place at room temperature for 30 minutes. After the shaking on a plate shaker (IKA MTS-4) at 800 rpm for 30 seconds, the solution was immediately removed to remove the unbound cells. The fluorescence quantity of the bound cells remaining in the wells was determined with a fluorescent plate reader (Wallac 1920 ARVO multi-label counter) (filter excitation wave length: 485 nm, emission wave length: 535 nm). The fluorescent strength thus obtained is proportional to the number of Jurkat cells bound to VCAM-1 and remaining on the plate. The binding rate of each test material in various concentrations was determined while the fluorescent strength of the test material-free well was determined to be 100%.

Another assay has as its target T2, integrin α4β7 (Homo sapiens, UniProt P13612+P26010).
T2 construct: lymphoma cell strain RPMI-8866 of human B cells, known to express integrin α4β7; endogenous in cells; host or cells: RPMI-8866
T2 sequence (P13612 34-1032): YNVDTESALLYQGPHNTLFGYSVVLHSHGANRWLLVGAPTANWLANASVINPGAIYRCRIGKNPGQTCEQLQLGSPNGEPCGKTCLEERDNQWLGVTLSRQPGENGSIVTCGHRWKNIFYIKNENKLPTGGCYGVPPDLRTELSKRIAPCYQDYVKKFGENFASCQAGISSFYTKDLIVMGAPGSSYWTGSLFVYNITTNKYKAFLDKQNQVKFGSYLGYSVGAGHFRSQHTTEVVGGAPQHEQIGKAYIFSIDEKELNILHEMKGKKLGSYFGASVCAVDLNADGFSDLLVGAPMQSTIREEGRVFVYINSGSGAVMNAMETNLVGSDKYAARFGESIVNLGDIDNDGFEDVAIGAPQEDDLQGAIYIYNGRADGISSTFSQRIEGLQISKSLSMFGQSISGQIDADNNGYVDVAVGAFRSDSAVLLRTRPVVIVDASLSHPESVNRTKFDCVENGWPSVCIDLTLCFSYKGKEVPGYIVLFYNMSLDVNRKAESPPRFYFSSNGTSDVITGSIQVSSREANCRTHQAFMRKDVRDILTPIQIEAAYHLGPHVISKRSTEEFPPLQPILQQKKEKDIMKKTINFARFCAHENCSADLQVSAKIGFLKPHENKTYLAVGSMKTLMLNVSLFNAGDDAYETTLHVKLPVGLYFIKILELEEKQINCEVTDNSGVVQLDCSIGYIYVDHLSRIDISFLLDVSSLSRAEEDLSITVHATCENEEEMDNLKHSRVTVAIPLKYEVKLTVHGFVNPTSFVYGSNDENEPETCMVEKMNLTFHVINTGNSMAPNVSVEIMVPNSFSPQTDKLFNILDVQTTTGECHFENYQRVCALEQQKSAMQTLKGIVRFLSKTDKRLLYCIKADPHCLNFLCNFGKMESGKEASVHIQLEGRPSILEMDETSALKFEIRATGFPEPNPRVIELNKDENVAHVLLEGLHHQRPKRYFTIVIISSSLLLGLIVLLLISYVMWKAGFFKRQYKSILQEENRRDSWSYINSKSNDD
T2 sequence (P26010 20-798): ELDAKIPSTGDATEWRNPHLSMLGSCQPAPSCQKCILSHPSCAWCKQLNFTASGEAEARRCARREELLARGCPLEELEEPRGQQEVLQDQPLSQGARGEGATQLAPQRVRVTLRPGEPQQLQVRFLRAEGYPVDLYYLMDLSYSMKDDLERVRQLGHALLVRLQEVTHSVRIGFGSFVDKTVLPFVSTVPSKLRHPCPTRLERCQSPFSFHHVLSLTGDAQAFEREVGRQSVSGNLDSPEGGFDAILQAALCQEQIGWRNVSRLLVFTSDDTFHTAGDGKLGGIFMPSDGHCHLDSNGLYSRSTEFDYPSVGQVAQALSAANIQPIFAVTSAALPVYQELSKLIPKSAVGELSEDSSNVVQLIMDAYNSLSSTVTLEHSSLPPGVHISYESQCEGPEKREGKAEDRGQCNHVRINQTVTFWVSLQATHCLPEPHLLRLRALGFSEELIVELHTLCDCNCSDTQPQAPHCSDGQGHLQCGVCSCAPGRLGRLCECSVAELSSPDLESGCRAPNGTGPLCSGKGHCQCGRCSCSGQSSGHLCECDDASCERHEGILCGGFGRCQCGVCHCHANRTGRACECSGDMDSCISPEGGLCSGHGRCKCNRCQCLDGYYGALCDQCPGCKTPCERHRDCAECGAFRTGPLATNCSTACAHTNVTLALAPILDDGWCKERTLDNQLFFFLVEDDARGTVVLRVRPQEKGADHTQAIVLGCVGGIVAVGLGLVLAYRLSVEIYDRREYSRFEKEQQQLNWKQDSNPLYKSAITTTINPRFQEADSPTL
The assay is described as follows: VCAM antagonistic activity (VCAM-1/α4β7 binding assay), RPMI-8866 cells binding to VCAM-1. To be noted: RPMI-8866 human B lymphoma cells binding to recombinant human VCAM-1; binding buffer with 4 mM MnCl2. Format: cell-based. Here is the method: VCAM Antagonistic Activity (VCAM-1/α4β7 Binding Assay)
The capacity of a test substance antagonistic to the binding of lymphoma cell strain RPMI-8866 of human B cells, known to express integrin α4β7, to VCAM-1 was determined.
as §1
RPMI-8866 cells were washed with DMEM twice and incubated in Dulbecco modified Eagle medium containing 10 μg/ml of Calcein-AM (Wako Pure Chemical Industries, Ltd.) (SIGMA, hereinafter referred to as “DMEM”) in dark place at 37° C. for 30 minutes to label with fluorescence. The cells were again suspended in a binding buffer (20 mM HEPES, DMEM containing 0.1% BSA) containing 4 mM of MnCl2.
as §2, with “RPMI-8866” for “Jurkat”, “1420” for “1920”

T1 sequence (P05556 21-798, one chain of several): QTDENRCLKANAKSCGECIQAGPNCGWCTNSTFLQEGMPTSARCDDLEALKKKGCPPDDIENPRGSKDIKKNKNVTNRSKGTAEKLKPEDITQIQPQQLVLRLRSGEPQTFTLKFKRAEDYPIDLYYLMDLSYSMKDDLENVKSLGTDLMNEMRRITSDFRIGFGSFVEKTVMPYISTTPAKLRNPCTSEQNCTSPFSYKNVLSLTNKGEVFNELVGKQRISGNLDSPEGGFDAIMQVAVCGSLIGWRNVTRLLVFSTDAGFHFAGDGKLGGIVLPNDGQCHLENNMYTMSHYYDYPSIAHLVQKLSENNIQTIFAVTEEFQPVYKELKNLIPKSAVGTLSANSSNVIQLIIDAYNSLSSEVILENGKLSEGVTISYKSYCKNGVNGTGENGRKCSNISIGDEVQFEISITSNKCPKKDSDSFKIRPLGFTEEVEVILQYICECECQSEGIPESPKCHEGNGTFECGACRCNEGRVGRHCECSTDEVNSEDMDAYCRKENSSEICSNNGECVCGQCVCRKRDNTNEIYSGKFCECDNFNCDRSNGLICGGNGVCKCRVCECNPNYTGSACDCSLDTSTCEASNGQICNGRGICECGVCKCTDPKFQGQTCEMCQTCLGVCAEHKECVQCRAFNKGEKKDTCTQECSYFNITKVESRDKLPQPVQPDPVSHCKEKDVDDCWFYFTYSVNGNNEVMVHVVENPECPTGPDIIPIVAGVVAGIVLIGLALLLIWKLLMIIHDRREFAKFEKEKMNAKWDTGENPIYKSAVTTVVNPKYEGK

Turning to `Cn1c(=O)n(-c2ccc(C[C@H](NC(=O)c3c(Cl)cccc3Cl)C(=O)O)cc2)c(=O)c2cccnc21` [Example 74], the 50% inhibitory concentration (IC50) on integrin α4β1 amounted to 53 nM; at integrin α4β7 it was 2.5 nM.

Regarding `COc1ccc(C(=O)CSc2nc3ccccc3c(=O)n2-c2ccc(C[C@H](NC(=O)c3c(Cl)cccc3Cl)C(=O)O)cc2)cc1` [Example 23], the IC50 was determined as 7240 nM on integrin α4β1 and 18 nM at integrin α4β7.

Turning to `Cn1c(=O)n(-c2ccc(C[C@H](NC(=O)C3CCCCC3)C(=O)O)cc2)c(=O)c2ccccc21` [Example 12], the results for the IC50 on integrin α4β1 and at integrin α4β7 were 490 nM and 19 nM, respectively.

On to `O=C(N[C@@H](Cc1ccc(-n2c(=O)[nH]c3cccc(Cl)c3c2=O)cc1)C(=O)O)c1c(Cl)cccc1Cl` [Example 54], for which the IC50 on integrin α4β1 worked out at 71 nM; on integrin α4β7, 9.8 nM.

For the compound `Cn1c(=O)n(-c2ccc(C[C@H](NC(=O)c3c(Cl)cccc3Cl)C(=O)O)cc2)c(=O)c2cc([N+]3(C)CCCC3)ccc21` [Example 113], the IC50 at integrin α4β1 was determined as 52 nM; on integrin α4β7, 1.6 nM.

Take `COc1ccc2c(c1)c(=O)n(-c1ccc(C[C@H](NC(=O)c3c(Cl)cccc3Cl)C(=O)O)cc1)c(=O)n2C` [Example 184]: the IC50 on integrin α4β1 came to 31 nM; on integrin α4β7, 3.3 nM.

Turning to `O=C(N[C@@H](Cc1ccc(-n2c(-c3ccccc3)nc3ccccc3c2=O)cc1)C(=O)O)c1c(Cl)cccc1Cl` [Example 35], the IC50 at integrin α4β1 was 1700 nM; at integrin α4β7 it was 68 nM.

As to `COc1ccc2c(=O)n(-c3ccc(C[C@H](NC(=O)c4c(Cl)cccc4Cl)C(=O)O)cc3)c(=O)oc2c1` [Example 139], the figures for the IC50 at integrin α4β1 and at integrin α4β7 were 107 nM and 17 nM, respectively.

Turning to `Cn1c(=O)n(-c2ccc(C[C@H](NC(=O)c3c(Cl)cccc3Cl)C(=O)O)cc2)c(=O)c2cc(Cl)ccc21` [Example 183], the IC50 was found to be 25 nM on integrin α4β1 and 1.7 nM at integrin α4β7.

On to `O=C(N[C@@H](Cc1ccc(-n2c(=O)c3cc([N+](=O)[O-])ccc3n(Cc3ccccc3)c2=S)cc1)C(=O)O)c1c(Cl)cccc1Cl` [Example 69], for which the IC50 amounted to 5630 nM at integrin α4β1 and 2.5 nM at integrin α4β7.

Regarding `COc1cccc2c(=O)n(-c3ccc(C[C@H](NC(=O)c4c(Cl)cccc4Cl)C(=O)O)cc3)c(=O)n(C)c12` [Example 180], the IC50 at integrin α4β1 came to 86 nM; at integrin α4β7 it was 5.4 nM.

For `O=C(N[C@@H](Cc1ccc(-n2c(=O)oc3c(ccc4ccccc43)c2=O)cc1)C(=O)O)c1c(Cl)cccc1Cl` [Example 137], the IC50 at integrin α4β1 was 2120 nM; at integrin α4β7, 11.2 nM.

As to `Cn1c(=O)n(-c2ccc(C[C@H](NC(=O)c3c(Cl)cccc3Cl)C(=O)O)cc2)c(=O)c2ccc(F)cc21` [Example 72], the IC50 was found to be 27 nM on integrin α4β1 and 2.6 nM on integrin α4β7.

In the case of `O=C(N[C@@H](Cc1ccc(-n2c(=O)oc3ccccc3c2=O)cc1)C(=O)O)c1c(Cl)cccc1Cl` [Example 136], the half-inhibitory concentration (IC50) was determined as 565 nM at integrin α4β1 and 3 nM on integrin α4β7.

With `Cc1cccc2c1c(=O)n(-c1ccc(C[C@H](NC(=O)c3c(Cl)cccc3Cl)C(=O)O)cc1)c(=O)n2C` [Example 181], the concentration for half-maximal inhibition (IC50) came out at 15 nM on integrin α4β1 and 1 nM at integrin α4β7.

Regarding `Cn1c(=O)n(-c2ccc(C[C@H](NC(=O)c3c(Cl)cccc3Cl)C(=O)O)cc2)c(=O)c2c(Cl)cccc21` [Example 187], the 50% inhibitory concentration (IC50) turned out to be 26 nM on integrin α4β1 and 3.2 nM at integrin α4β7.

Regarding `O=C(N[C@@H](Cc1ccc(-n2c(=O)[nH]c3ccc(Cl)cc3c2=O)cc1)C(=O)O)c1c(Cl)cccc1Cl` [Example 47], the IC50 on integrin α4β1 came to 1980 nM; on integrin α4β7, 76 nM.

For `Cn1c(=O)n(-c2ccc(C[C@H](NC(=O)c3c(Cl)cccc3Cl)C(=O)O)cc2)c(=O)c2cc(Cl)cc(Cl)c21` [Example 71], the IC50 on integrin α4β1 is 185 nM; on integrin α4β7, 11 nM.

Regarding `Cc1cccc(C)c1C(=O)N[C@@H](Cc1ccc(-n2c(-c3ccccc3)nc3ccccc3c2=O)cc1)C(=O)O` [Example 42], the IC50 amounted to 6730 nM at integrin α4β1 and 92 nM on integrin α4β7.

Take `Cn1c(=O)n(-c2ccc(C[C@H](NC(=O)c3c(Cl)cccc3Cl)C(=O)O)cc2)c(=O)c2cc(F)ccc21` [Example 189]: the IC50 stood at 18 nM at integrin α4β1 and 1.1 nM on integrin α4β7.

With `Nc1ccc2c(=O)n(-c3ccc(C[C@H](NC(=O)c4c(Cl)cccc4Cl)C(=O)O)cc3)c(=O)oc2c1` [Example 142], the IC50 came out at 210 nM on integrin α4β1 and 9 nM on integrin α4β7.

As for `CCc1nc2ccccc2c(=O)n1-c1ccc(C[C@H](NC(=O)c2c(Cl)cccc2Cl)C(=O)O)cc1` [Example 32], the IC50 at integrin α4β1 was 2420 nM; at integrin α4β7, 64 nM.

What is called IC50 is the concentration needed to halve the response being measured.
